Assay results taken from patent US20210198277A1, “AMINE-SUBSTITUTED ARYL OR HETEROARYL COMPOUNDS” (Epizyme, Inc., priority 2016, published 2021).

molecular target: T1, EHMT2 (Homo sapiens, UniProt Q96KQ7); experiment: MDA-MB-231 H3K9me2 in-cell Western assay (EHMT2 ICW); assay type: cell-based; details: H3K9me2 in-cell Western, MDA-MB-231 cells; read-out: EHMT2 ICW (IC50 μM)
T1 construct: host or cells: MDA-MB-231
T1 sequence (Q96KQ7 1-1210): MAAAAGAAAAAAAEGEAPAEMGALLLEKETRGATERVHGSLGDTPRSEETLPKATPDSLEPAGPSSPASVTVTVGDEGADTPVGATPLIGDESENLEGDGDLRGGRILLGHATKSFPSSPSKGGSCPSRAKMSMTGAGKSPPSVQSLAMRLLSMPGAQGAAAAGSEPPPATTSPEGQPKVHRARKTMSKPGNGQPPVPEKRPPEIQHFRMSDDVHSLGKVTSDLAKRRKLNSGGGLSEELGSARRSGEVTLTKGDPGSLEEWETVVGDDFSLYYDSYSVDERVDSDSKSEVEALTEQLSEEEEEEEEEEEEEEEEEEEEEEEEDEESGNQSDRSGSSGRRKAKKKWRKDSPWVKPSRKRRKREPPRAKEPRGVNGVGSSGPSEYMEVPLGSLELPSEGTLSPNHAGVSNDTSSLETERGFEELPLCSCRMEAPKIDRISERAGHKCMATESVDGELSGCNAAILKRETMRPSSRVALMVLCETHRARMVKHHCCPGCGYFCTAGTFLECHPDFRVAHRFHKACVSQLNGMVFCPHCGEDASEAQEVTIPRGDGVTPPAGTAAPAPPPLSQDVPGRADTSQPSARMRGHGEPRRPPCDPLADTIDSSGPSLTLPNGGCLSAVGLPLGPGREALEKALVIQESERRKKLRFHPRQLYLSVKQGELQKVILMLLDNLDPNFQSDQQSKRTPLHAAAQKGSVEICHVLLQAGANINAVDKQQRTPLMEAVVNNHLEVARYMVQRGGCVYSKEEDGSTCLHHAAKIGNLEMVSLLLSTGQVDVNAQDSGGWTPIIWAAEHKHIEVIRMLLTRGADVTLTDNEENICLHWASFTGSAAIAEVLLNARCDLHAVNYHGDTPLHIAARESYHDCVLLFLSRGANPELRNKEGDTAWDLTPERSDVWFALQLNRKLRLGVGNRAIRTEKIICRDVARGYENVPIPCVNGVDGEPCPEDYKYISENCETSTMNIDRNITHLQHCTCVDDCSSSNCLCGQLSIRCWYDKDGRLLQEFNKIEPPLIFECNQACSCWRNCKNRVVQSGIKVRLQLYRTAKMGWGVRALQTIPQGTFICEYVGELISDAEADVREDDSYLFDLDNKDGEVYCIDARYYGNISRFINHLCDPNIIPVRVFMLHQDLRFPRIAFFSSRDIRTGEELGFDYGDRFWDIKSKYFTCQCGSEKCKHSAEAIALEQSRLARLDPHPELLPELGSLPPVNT
Procedure, shortened: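 For 48 h at 37 °C, breast cancer MDA-MB-231 cells were incubated with compound, then fixed and immunostained for H3K9me2, with DRAQ5 used for normalisation. Each well's signal ratio yielded percent inhibition, and IC50 values were derived by fitting a four-parameter curve.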

Row | IC50 [µM] | SMILES
1 | 1 to 10 | CNc1nc(C2CCCC2)c2cc(OC)c(OCCCN3CCCC3)cc2n1 [Compound 518, 4-cyclopentyl-6-methoxy-N-methyl-7-(3-(pyrrolidin-1-yl)propoxy)quinazolin-2-amine]
2 | > 10 | CNc1nc(C2CCN(C(C)=O)CC2)c2cc(OC)c(OCCCN3CCCC3)cc2n1 [Compound 519]
3 | 1 to 10 | CNc1nc(C2CCNCC2)c2cc(OC)c(OCCCN3CCCC3)cc2n1 [Compound 520]
4 | 1 to 10 | CNc1nc(C2CCOCC2)c2cc(OC)c(OCCCN3CCCC3)cc2n1 [Compound 521]
5 | 1 to 10 | CNc1nc(C2=CCOCC2)c2cc(OC)c(OCCCN3CCCC3)cc2n1 [Compound 522]
6 | 1 to 10 | CNc1nc(C2CCCCC2)c2cc(OC)c(OCCCN3CCCC3)cc2n1 [Compound 523, 4-cyclohexyl-6-methoxy-N-methyl-7-(3-(pyrrolidin-1-yl)propoxy)quinazolin-2-amine]
7 | < 0.1 | CNc1cc(C2CCOCC2)c2cc(OC)c(OCCCN3CCCC3)cc2n1 [Compound 524, 6-methoxy-N-methyl-4-(oxan-4-yl)-7-[3-(pyrrolidin-1-yl)propoxy]quinolin-2-amine]
8 | 0.1 to 1 | CNc1nc(C2CCN(C(C)C)CC2)c2cc(OC)c(OC[C@@H]3CCN(C4CC4)C3)cc2n1 [Compound 526]
9 | 0.1 to 1 | COc1cc2c(C3CCN(C)CC3)nc(N3CCCC3)nc2cc1OCCCN1CCCC1 [Compound 527]
10 | 1 to 10 | COc1cc2c(C3CCN(C)CC3)nc(N3CCC(F)(F)CC3)nc2cc1OCCCN1CCCC1 [Compound 528]
11 | 0.1 to 1 | COc1cc2c(C3CCN(C)CC3)nc(NC3CCCC3)nc2cc1OCCCN1CCCC1 [Compound 529]
12 | 1 to 10 | CNc1nc(C2CCN(C(C)C)CC2)c2cc(OC)c(OCCCN3CCCC3)cc2n1 [Compound 530]
13 | 0.1 to 1 | CNc1nc(C2CCN(C)CC2)c2cc(OC)c(OCCCN3CC4CC4C3)cc2n1 (stereo not shown) [Compound 532]
14 | 0.1 to 1 | CNc1nc(C2CCN(CCO)CC2)c2cc(OC)c(OCCCN3CCCC3)cc2n1 [Compound 533]
15 | > 10 | CNc1nc(C2CC(C)(C)NC(C)(C)C2)c2cc(OC)c(OCCCN3CCCC3)cc2n1 [Compound 534]
16 | < 0.1 | CNc1cc(C2CCN(C)CC2)c2cc(OC)c(OCCCN3CCCC3)cc2n1 [Compound 535]
17 | 0.1 to 1 | COc1cc2c(C3CCN(C)CC3)cc(C)nc2cc1OCCCN1CCCC1 [Compound 536]
18 | > 10 | CCCCNc1nccc(NC)n1 [Compound 543, N^2-butyl-N^4-methylpyrimidine-2,4-diamine]

same assay, conditions: Table VII; read-out: EHMT2 ICW IC50

Row | IC50 [µM] | SMILES
19 | 0.1 to 1 | CNc1cc(C)nc(Nc2ccc(OC)c(OC[C@@H](O)CN3CCCC3)c2)n1 [Compound 1044]
20 | 0.1 to 1 | CNc1cc(C)nc(Nc2ccc(OC)c(OC[C@H](O)CN3CCCC3)c2)n1 [Compound 1045]
21 | 1 to 10 | CNc1ccnc(Nc2ccc(OC)c(OC[C@@H](O)CN3CCC3)c2)n1 [Compound 1046]
22 | 0.1 to 1 | CNc1cc(C2CCOCC2)c2cc(OC)c(OC[C@H](O)CN3CCC3)cc2n1 [Compound 1108]
23 | 1 to 10 | CNc1cc(C)nc(Nc2ccc(OC)c(CNCCNC3CCC3)c2)n1 [Compound 1109]
24 | 0.1 to 1 | CNc1cc(C)nc(Nc2cnc(OC)c(CNCCN3CCC3)c2)n1 [Compound 1110]
25 | 0.1 to 1 | CNc1cc(C2CCOCC2)c2cc(OC)c(CNCCN3CCCC3)cc2n1 [Compound 1111]
26 | 1 to 10 | CNc1cc(C)nc(Nc2ccc(OC)c(OC[C@H](O)CN(C)C)c2)n1 [Compound 1112]
27 | 1 to 10 | CCN(C)C[C@@H](O)COc1cc(Nc2nc(C)cc(NC)n2)ccc1OC [Compound 1113]
28 | > 10 | CNc1cc(C)nc(Nc2ccc(C)c(C(=O)NCc3ccon3)c2)n1 [Compound 1114]
